Patent US20070166367A1, “Adept or gdept producing acetaldehyde” (priority 2004, published 2007)
Where two headings read alike, the source gives them in different places.

How the values were obtained:
[1] = target: T1, Acetaldehyde dehydrogenase 2 (ALDH2) (Homo sapiens, UniProt P05091); details: cited from earlier work
T1 sequence (P05091 18-517): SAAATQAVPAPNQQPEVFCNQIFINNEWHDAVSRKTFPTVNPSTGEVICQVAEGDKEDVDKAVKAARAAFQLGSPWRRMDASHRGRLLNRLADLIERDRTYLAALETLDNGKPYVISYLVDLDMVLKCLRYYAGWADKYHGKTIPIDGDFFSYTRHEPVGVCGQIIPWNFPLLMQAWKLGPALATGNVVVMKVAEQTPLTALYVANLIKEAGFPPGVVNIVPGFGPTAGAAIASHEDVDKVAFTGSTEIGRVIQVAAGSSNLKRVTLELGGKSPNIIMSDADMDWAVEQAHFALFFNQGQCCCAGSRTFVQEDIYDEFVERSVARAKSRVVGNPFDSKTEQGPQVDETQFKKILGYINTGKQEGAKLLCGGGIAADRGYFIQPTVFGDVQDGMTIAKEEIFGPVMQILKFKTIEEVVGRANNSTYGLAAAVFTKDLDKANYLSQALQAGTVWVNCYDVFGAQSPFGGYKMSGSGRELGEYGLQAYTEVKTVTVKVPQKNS

[2] = during alcohol metabolism; cited from earlier work
[3] = target: T2, aldehyde dehydrogenase 1 (ALDH1) (Homo sapiens, UniProt P00352); details: cited from earlier work
T2 sequence (P00352 1-501): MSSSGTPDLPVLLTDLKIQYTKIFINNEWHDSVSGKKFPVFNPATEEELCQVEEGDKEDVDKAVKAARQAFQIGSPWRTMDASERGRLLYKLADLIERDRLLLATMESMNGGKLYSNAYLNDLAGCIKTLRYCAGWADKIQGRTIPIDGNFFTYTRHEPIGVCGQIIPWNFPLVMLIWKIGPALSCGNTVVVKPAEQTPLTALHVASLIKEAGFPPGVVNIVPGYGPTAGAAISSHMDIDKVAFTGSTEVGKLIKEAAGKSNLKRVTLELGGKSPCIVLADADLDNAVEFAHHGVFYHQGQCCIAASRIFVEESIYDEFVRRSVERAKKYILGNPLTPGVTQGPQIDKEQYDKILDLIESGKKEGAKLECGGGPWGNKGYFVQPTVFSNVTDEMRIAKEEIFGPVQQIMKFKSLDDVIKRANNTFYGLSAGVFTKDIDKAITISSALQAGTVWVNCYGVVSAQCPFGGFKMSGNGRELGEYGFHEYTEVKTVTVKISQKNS

[4] = test system: Human Lymphocytes; details: cited from earlier work
[5] = test system: CaCo-2 (Human colorectal cancer cells); details: cited from earlier work; for Doubling Time: 72 hrs
[6] = cited from earlier work
[7] = acetaldehyde in breath and blood after ethanol consumption; format: in vivo; details: suggested from breath values and partition coefficient
[8] = ethanol fed animals, cited from earlier work
[9] = tissue culture at 37° C., cited from earlier work
[10] = ethanol IP 3 g/kg, +30 minutes, cited from earlier work
[11] = in vivo; cited from earlier work
[12] = in vitro acetaldehyde and cisplatin toxicity assay; format: cell-based; details: human, Daudi cells; higher concentrations (500 uM and 1 mM), day 3, FIG. 1; read-out: viable cell numbers as % of starting number
Protocol: (§1) Standard tissue culture techniques were used to maintain Hela, Daudi, Jurkat, CMT-64 cells in flasks in DMEM+10% FCS in a 37° C. incubator.
(§2) Cell lines subcloned into 25-cm^2 flasks and incubated in media containing dilutions of acetaldehyde, cisplatin or both. Flasks remained sealed during incubation and the media and acetaldehyde/cisplatin were replaced daily. Viable cell counts were made using Trypan blue exclusion and a standard haemocytometer.

[13] = test system: CMT-64; experiment: in vitro acetaldehyde and cisplatin toxicity assay; format: cell-based
Protocol: as §1, §2

[14] = test system: Daudi; experiment: in vitro acetaldehyde and cisplatin toxicity assay; format: cell-based
Protocol: as §1, §2

[15] = test system: Human Fibroblasts; details: 5 hr exposure, cited from earlier work

## CC=O [acetaldehyde]
[1]
  Km: 3.5 µM
[2]
  levels in the liver: ~100 µM
[3]
  Km: 22 µM
[4]; 90 μM
  Number of metaphases (cell divisions) counted: 200
[4]; 180 μM
  Number of metaphases (cell divisions) counted: 200
[4]; 360 μM
  Number of metaphases (cell divisions) counted: 200
[4]; 720 μM
  Number of metaphases (cell divisions) counted: 130
[4]; 1080 μM
  Number of metaphases (cell divisions) counted: 23
[4]; 1440 μM
  Number of metaphases (cell divisions) counted: 0 and no growth
[5]; 500 μM and 1000 μM acetaldehyde for 72 hrs
  Cytotoxicity: No significant effects.
[5]; 500 μM
  Doubling Time: 150 % of control
[5]; 1000 μM
  Doubling Time: 270 % of control
[6]; after ethanol consumption, different patient groups
  concentrations of acetaldehyde in the breath: 5 to 1300 nM
[6]; volunteers consuming alcohol with an hepatic ALDH inhibitor
  systemic concentrations of acetaldehyde: up to 240 uM
[7]
  blood values: 1 to 260 µM
[8]; colon
  cellular conc: about 250 μM
[8]
  Acetaldehyde levels in colonic contents: exceed 3 mM
[9]
  ½ life: about 30 minutes
[9]; listed as Acetaldehyde
  ½ life: 30 min
[10]; ADH overexpressing heart
  acetaldehyde levels: 70 µM
[10]; control heart
  acetaldehyde levels: 15 µM
[11]
  level described for systemic acetaldehyde toxicity: 40 to 60 µM
[12]
  viability at 3 days: 37%
[13]
  concentrations at which significant growth inhibition occurred: over 500 uM
[13]; 250 uM acetaldehyde
  effect on proliferation: reduction in the rate of proliferation
[13]; FIG. 2
  cell number as % of starting number: 170%
[14]; 250 uM acetaldehyde
  effect on proliferation: reduction in the rate of proliferation
[14]; higher cell density, 3 days exposure, FIG. 2
  cell number as % of starting number: 67%
[15]; 1 mM
  % survival: 75%
[15]; 2 mM
  % survival: 55%
